Reference: ChEMBL document CHEMBL1201862, “PubChem BioAssay data set” (2004)
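Each compound was tested at five concentrations against cells in 96-well plates for 48 hours. GI50 marks 50% less growth.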 Calls of active or inactive are those of the source. No stated cut-off is given here; in the data, active = GI50 up to about 1.1 µM and inactive = higher.

Experiments:
Assay in all cases: inhibition of tumour cell growth, NCI panel, 48 h
[1] = test system: K562
[2] = test system: SNB-75
[3] = test system: UO-31
[4] = test system: ACHN
[5] = test system: HT-29
[6] = test system: OVCAR-8
[7] = test system: OVCAR-3
[8] = test system: EKVX
[9] = test system: UACC-62
[10] = test system: SF-539
[11] = test system: A498
[12] = test system: MOLT-4
[13] = test system: SF-268
[14] = test system: SF-295
[15] = test system: HCT-116
[16] = test system: A549
[17] = test system: UACC-257
[18] = test system: OVCAR-5
[19] = test system: 786-0

| SMILES | GI50 [1] | GI50 [2] | GI50 [3] | GI50 [4] | GI50 [5] | GI50 [6] | GI50 [7] | GI50 [8] | GI50 [9] | GI50 [10] | GI50 [11] | GI50 [12] | GI50 [13] | GI50 [14] | GI50 [15] | GI50 [16] | GI50 [17] | GI50 [18] | GI50 [19] |
| --- | --- | --- | --- | --- | --- | --- | --- | --- | --- | --- | --- | --- | --- | --- | --- | --- | --- | --- | --- |
| CC1=NC(C(=O)O)Cc2c1[nH]c1ccccc21 (stereo unspecified) | > 100 µM (inactive) | > 100 µM (inactive) | > 100 µM (inactive) | > 100 µM (inactive) | > 100 µM (inactive) | > 100 µM (inactive) | > 100 µM (inactive) | > 100 µM (inactive) | > 100 µM (inactive) | > 100 µM (inactive) | > 100 µM (inactive) | > 100 µM (inactive) | > 100 µM (inactive) | > 100 µM (inactive) | – | – | – | – | – |
| O=C1NC2(CCCCC2)C2CCCCCC12 (stereo unspecified) | > 100 µM (inactive) | > 100 µM (inactive) | > 100 µM (inactive) | > 100 µM (inactive) | > 100 µM (inactive) | – | > 100 µM (inactive) | > 100 µM (inactive) | > 100 µM (inactive) | > 100 µM (inactive) | > 100 µM (inactive) | > 100 µM (inactive) | > 100 µM (inactive) | > 100 µM (inactive) | > 100 µM (inactive) | > 100 µM (inactive) | > 100 µM (inactive) | > 100 µM (inactive) | – |
| O=C1CN(c2ccccc2)C(=O)C1C(=O)Nc1ccc(Cl)c(Cl)c1 (stereo unspecified) | 0.604 µM (active) | 0.973 µM (active) | 4.12 µM (inactive) | 4 µM (inactive) | 3.68 µM (inactive) | – | 3.15 µM (inactive) | – | 1.73 µM (inactive) | 3.85 µM (inactive) | – | 2.33 µM (inactive) | 6.32 µM (inactive) | 3.72 µM (inactive) | – | 2.72 µM (inactive) | 8.28 µM (inactive) | 30.4 µM (inactive) | – |
| Cn1c2c(c3ccccc31)CCN(CCCCN1CCCCC1)C2=O | > 100 µM (inactive) | – | > 100 µM (inactive) | > 100 µM (inactive) | 61 µM (inactive) | > 100 µM (inactive) | > 100 µM (inactive) | > 100 µM (inactive) | 28.3 µM (inactive) | > 100 µM (inactive) | > 100 µM (inactive) | > 100 µM (inactive) | 51.1 µM (inactive) | > 100 µM (inactive) | 84.5 µM (inactive) | > 100 µM (inactive) | 62.7 µM (inactive) | > 100 µM (inactive) | > 100 µM (inactive) |
| COc1cc2c(cc1OC)C(Cl)C(c1cc(OC)c(OC)c(OC)c1)=C2Cl (stereo unspecified) | 12.4 µM (inactive) | 2.69 µM (inactive) | 11 µM (inactive) | 13.6 µM (inactive) | 14.4 µM (inactive) | 17.5 µM (inactive) | 17.1 µM (inactive) | 19.1 µM (inactive) | 13.6 µM (inactive) | 13.8 µM (inactive) | 22.3 µM (inactive) | 7.06 µM (inactive) | 16.6 µM (inactive) | 15.2 µM (inactive) | – | – | – | – | – |
| CN(C)CCSc1nccc(-c2ccc(-c3ccnc(SCCN(C)C)n3)s2)n1 | 6.08 µM (inactive) | 14.4 µM (inactive) | 4.94 µM (inactive) | – | 2.57 µM (inactive) | 6.1 µM (inactive) | 13.4 µM (inactive) | 18.2 µM (inactive) | 15.3 µM (inactive) | 6.87 µM (inactive) | 15.1 µM (inactive) | 0.76 µM (active) | 8.17 µM (inactive) | 10.7 µM (inactive) | 3.33 µM (inactive) | 12.4 µM (inactive) | 16.7 µM (inactive) | 9.1 µM (inactive) | – |
| Nc1ccc(/C=C/c2ccnc3ccccc23)cc1 | 12.7 µM (inactive) | 15.9 µM (inactive) | 16.5 µM (inactive) | 19.2 µM (inactive) | 23.4 µM (inactive) | 21.8 µM (inactive) | 15 µM (inactive) | – | 23.4 µM (inactive) | 20 µM (inactive) | – | 7.76 µM (inactive) | 16.5 µM (inactive) | 16.1 µM (inactive) | 17.5 µM (inactive) | 19.4 µM (inactive) | 22.2 µM (inactive) | 19.6 µM (inactive) | 18.6 µM (inactive) |
| O=C1OC(c2ccc(Cl)cc2)(c2ccc(Cl)cc2)c2c1ccc1ccccc21 | 54.5 µM (inactive) | 36.7 µM (inactive) | 92.3 µM (inactive) | > 100 µM (inactive) | > 100 µM (inactive) | > 100 µM (inactive) | > 100 µM (inactive) | > 100 µM (inactive) | > 100 µM (inactive) | – | > 100 µM (inactive) | 39.4 µM (inactive) | > 100 µM (inactive) | > 100 µM (inactive) | – | > 100 µM (inactive) | > 100 µM (inactive) | > 100 µM (inactive) | – |
| Cc1cc2c(C(C)C)c(O)c(O)c(/C=N/c3ccccc3)c2c(O)c1-c1c(C)cc2c(C(C)C)c(O)c(O)c(/C=N/c3ccccc3)c2c1O | > 100 µM (inactive) | 67.8 µM (inactive) | > 100 µM (inactive) | > 100 µM (inactive) | > 100 µM (inactive) | > 100 µM (inactive) | > 100 µM (inactive) | > 100 µM (inactive) | > 100 µM (inactive) | > 100 µM (inactive) | – | > 100 µM (inactive) | > 100 µM (inactive) | > 100 µM (inactive) | > 100 µM (inactive) | > 100 µM (inactive) | – | > 100 µM (inactive) | – |
| COC(=O)c1cccc(C(=O)OC)c1 | – | > 100 µM (inactive) | – | > 100 µM (inactive) | > 100 µM (inactive) | – | – | – | – | – | > 100 µM (inactive) | > 100 µM (inactive) | > 100 µM (inactive) | > 100 µM (inactive) | > 100 µM (inactive) | > 100 µM (inactive) | > 100 µM (inactive) | > 100 µM (inactive) | – |
| CCOC(=O)NC(=O)c1cn(CCSCCOC(=O)NCCCCCCNC(=O)OCCSCCn2cc(C(=O)NC(=O)OCC)c(=O)[nH]c2=O)c(=O)[nH]c1=O | > 100 µM (inactive) | > 100 µM (inactive) | > 100 µM (inactive) | > 100 µM (inactive) | > 100 µM (inactive) | > 100 µM (inactive) | > 100 µM (inactive) | > 100 µM (inactive) | > 100 µM (inactive) | > 100 µM (inactive) | – | – | – | > 100 µM (inactive) | > 100 µM (inactive) | > 100 µM (inactive) | > 100 µM (inactive) | – | – |
| CCOC1=C2N=C(Cc3ccc(F)cc3)NC2C(=O)c2ccccc21 (stereo unspecified) | 17.9 µM (inactive) | 15.7 µM (inactive) | 4.69 µM (inactive) | 14 µM (inactive) | 21.1 µM (inactive) | 20.6 µM (inactive) | 18.6 µM (inactive) | 23.2 µM (inactive) | 22.1 µM (inactive) | 13.3 µM (inactive) | 21.6 µM (inactive) | 17.5 µM (inactive) | – | – | > 10 µM (inactive) | – | 7.91 µM (inactive) | 45.4 µM (inactive) | 20.8 µM (inactive) |
| NC1(C(=O)O)CCc2ccc(N(CCCl)CCCl)cc2C1 (stereo unspecified) | > 100 µM (inactive) | 98.2 µM (inactive) | > 100 µM (inactive) | – | > 100 µM (inactive) | > 100 µM (inactive) | > 100 µM (inactive) | > 100 µM (inactive) | 22.5 µM (inactive) | 34.5 µM (inactive) | > 100 µM (inactive) | 4.74 µM (inactive) | 24.3 µM (inactive) | 29.6 µM (inactive) | 0.01 µM (active) | 61.7 µM (inactive) | > 100 µM (inactive) | 39.9 µM (inactive) | – |
